Reference: US10631537B2, “Disinfectant composition having residual biocidal properties” (LONZA LLC, priority 2016, dated 2020)

Assays:
P. aeruginosa = assay: Second screening: efficacy of dried film after abrasion (0 rub vs 12 dry rubs); assay type: cell-based; conditions: active 0.4%, film PVOH, about 30 mg; for Log10 Reduction, 12 dry Rubs: no re-inoculation between rubs
Procedure: (§1) First round of micro test was to evaluate the efficacy of the biocides against P. aeruginosa. About 30 mg of the biocide/polymer based formulation were coated on the one square inch area of a stainless steel coupon. The treated stainless steel coupons were left on the bench for air drying overnight. The dried stainless steel test samples were sent to a micro lab for efficacy testing against P. aeruginosa ATCC 15442 following a modified version of Residual Self-Sanitizing Activity on Hard, Non-Porous Surfaces (EPA Protocol #01-1A). […] Samples were inoculated with the test organism and held for a 5 minute contact time. Three replicates were tested for each sample. Second round of testing was to compare the efficacy after an abrasion process. About 30 mg of the test formulation was coated on the one square inch area of a stainless steel coupon. Samples were divided into two groups: one group had 0 rub, and the other group had 12 dry rubs. No re-inoculation was applied between rubs.

P. aeruginosa ATCC 15442 = assay: First screening: residual self-sanitizing activity of dried film on stainless steel coupon, no wearing (modified EPA Protocol #01-1A); assay type: cell-based; conditions: about 30 mg on one square inch, dried overnight, 5 minute contact time
Procedure: as §1, with “sample.” for “sample. Second round of testing was to compare the efficacy after an abrasion process. About 30 mg of the test formulation was coated on the one square inch area of a stainless steel coupon. Samples were divided into two groups: one group had 0 rub, and the other group had 12 dry rubs. No re-inoculation was applied between rubs.”

[1] = active concentration 0.4%, film PVOH

Compound | Log10 Reduction, 12 dry Rubs (P. aeruginosa) [log10] | Log10 Reduction, No Rub (P. aeruginosa) [log10] | Log reduction (with culture dilution), average (P. aeruginosa ATCC 15442; active concentration 1.0%, film PVOH) [log] | Log reduction (with culture dilution), average (P. aeruginosa ATCC 15442; [1]) [log] | Log reduction (with culture dilution), average (P. aeruginosa ATCC 15442; active concentration 0.4%, film PVP) [log]
N=C(NCCCCCCNC(=N)NC(=N)Nc1ccc(Cl)cc1)NC(=N)Nc1ccc(Cl)cc1 [Chlorhexidine digluconate] | 5.04 | 5.42 | ≥4.85 | – | –
CCCCCCCCCCCCN(CCCN)CCCN [N,N-bis(3-aminopropyl) dodecylamine, N,N-bis(3-aminopropyl)dodecylamine] | 4.77 | 5.22 | – | ≥4.85 | 4.05
Alkyldimethyl benzyl ammonium chlorides | 3.48 | 3.56 | – | 3.85 | –
